The kinase profiling compilation of Christmann-Franck et al. (2016)

Legend:
Assay in all cases: KINOMEscan competition binding
Conditions in all cases: compound 2.0 µM
PRKD1 (human) = PRKD1 (human) (UniProt Q15139)
CDKL5 (human) = CDKL5 (human) (UniProt O76039)
ICK (human) = ICK (human) (UniProt Q9UPZ9)
STK17B (human) = STK17B (human) (UniProt O94768)
CDC42BPG (human) = CDC42BPG (human) (UniProt Q6DT37)
SNRK (human) = SNRK (human) (UniProt Q9NRH2)
[1] = tested on: ABL1 (human), P00519 [E255K]
PTK6 (human) = PTK6 (human) (UniProt Q13882)
TESK1 (human) = TESK1 (human) (UniProt Q15569)
[2] = tested on: RET (human), P07949 [M918T]
LIMK1 (human) = LIMK1 (human) (UniProt P53667)
FGR (human) = FGR (human) (UniProt P09769)
MAP4K4 (human) = MAP4K4 (human) (UniProt O95819)
ZAP70 (human) = ZAP70 (human) (UniProt P43403)
Chain of ZAP70 (human) (P43403 whole entry, looked up): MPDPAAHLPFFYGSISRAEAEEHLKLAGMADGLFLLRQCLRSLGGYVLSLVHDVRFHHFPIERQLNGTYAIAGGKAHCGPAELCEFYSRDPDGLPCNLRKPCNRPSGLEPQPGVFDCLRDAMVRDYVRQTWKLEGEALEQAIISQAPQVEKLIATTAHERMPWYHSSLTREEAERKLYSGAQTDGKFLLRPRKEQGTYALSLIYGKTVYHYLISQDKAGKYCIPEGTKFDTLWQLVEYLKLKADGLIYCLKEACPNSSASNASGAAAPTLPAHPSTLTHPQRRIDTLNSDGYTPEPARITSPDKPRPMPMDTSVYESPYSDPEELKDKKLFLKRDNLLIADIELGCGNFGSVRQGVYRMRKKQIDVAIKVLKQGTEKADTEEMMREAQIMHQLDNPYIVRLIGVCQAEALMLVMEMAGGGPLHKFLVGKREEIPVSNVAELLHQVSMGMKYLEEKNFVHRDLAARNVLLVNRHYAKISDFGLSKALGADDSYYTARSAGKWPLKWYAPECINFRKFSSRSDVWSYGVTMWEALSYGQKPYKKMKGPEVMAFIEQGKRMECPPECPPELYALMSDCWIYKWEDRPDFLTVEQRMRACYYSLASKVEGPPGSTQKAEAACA

RPS6KA2 KD2 (human) = RPS6KA2 KD2 (human) (UniProt Q15349)
CDK4 CCND3 (human) = CDK4 CCND3 (human) (UniProt P11802+P30281)
TSSK1B (human) = TSSK1B (human) (UniProt Q9BXA7)
Chain of TSSK1B (human) (Q9BXA7 whole entry, looked up): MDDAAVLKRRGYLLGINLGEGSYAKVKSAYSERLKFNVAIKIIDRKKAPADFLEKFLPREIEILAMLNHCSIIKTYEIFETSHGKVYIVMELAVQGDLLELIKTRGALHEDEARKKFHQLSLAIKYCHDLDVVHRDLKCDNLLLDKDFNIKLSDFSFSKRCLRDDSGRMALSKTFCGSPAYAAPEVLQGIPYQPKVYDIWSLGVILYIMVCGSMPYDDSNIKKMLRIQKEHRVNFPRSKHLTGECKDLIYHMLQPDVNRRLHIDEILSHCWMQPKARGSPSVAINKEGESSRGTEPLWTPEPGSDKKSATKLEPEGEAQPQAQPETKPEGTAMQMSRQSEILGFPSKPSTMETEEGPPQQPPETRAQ

NIM1 (human) = NIM1 (human) (UniProt Q8IY84)
CHUK (human) = CHUK (human) (UniProt O15111)
MAP2K3 (human) = MAP2K3 (human) (UniProt P46734)
Chain of MAP2K3 (human) (P46734 whole entry, looked up): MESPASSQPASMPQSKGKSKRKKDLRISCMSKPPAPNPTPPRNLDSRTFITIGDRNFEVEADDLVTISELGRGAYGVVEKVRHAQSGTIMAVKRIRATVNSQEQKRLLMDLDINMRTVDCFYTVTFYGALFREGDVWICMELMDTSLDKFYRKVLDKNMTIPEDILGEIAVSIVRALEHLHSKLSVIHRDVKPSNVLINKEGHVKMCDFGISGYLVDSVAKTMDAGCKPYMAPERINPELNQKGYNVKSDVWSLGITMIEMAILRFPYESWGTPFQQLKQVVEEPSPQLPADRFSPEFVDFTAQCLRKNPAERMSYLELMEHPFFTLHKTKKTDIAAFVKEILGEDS

CLK1 (human) = CLK1 (human) (UniProt P49759)
PIM2 (human) = PIM2 (human) (UniProt Q9P1W9)
Chain of PIM2 (human) (Q9P1W9 whole entry, looked up): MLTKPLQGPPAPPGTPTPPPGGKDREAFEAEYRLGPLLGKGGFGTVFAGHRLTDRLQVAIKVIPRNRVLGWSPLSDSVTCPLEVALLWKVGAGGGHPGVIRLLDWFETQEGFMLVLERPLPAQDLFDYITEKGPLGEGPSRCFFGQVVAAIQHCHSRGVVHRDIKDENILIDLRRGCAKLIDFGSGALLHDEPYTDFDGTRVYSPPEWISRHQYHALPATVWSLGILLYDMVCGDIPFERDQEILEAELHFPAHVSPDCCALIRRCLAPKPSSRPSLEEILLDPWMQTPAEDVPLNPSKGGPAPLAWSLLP

PIK3CB (human) = PIK3CB (human) (UniProt P42338)
AAK1 (human) = AAK1 (human) (UniProt Q2M2I8)
PIK3CD (human) = PIK3CD (human) (UniProt O00329)
MELK (human) = MELK (human) (UniProt Q14680)
MAPK11 (human) = MAPK11 (human) (UniProt Q15759)
CDK16 (human) = CDK16 (human) (UniProt Q00536)
GRK1 (human) = GRK1 (human) (UniProt Q15835)
Chain of GRK1 (human) (Q15835 whole entry, looked up): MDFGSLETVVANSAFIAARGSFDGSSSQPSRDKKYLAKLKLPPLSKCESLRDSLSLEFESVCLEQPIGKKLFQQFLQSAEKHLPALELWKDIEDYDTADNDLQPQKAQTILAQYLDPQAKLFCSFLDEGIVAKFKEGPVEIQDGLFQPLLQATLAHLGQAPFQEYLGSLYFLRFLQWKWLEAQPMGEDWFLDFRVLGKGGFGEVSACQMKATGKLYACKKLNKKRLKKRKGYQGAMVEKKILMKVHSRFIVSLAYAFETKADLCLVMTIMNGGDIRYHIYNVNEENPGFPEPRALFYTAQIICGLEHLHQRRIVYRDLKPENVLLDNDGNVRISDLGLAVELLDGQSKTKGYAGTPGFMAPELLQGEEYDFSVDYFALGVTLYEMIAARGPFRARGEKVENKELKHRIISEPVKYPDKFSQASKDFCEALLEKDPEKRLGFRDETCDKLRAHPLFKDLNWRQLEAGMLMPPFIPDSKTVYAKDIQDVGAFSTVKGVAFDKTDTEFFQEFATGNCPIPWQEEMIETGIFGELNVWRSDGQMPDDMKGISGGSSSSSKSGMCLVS

SRC (human) = SRC (human) (UniProt P12931)
[3] = tested on: KIT (human), P10721 [D816V]
STK32A (human) = STK32A (human) (UniProt Q8WU08)
DDR2 (human) = DDR2 (human) (UniProt Q16832)
TNNI3K (human) = TNNI3K (human) (UniProt Q59H18)
Chain of TNNI3K (human) (Q59H18 whole entry, looked up): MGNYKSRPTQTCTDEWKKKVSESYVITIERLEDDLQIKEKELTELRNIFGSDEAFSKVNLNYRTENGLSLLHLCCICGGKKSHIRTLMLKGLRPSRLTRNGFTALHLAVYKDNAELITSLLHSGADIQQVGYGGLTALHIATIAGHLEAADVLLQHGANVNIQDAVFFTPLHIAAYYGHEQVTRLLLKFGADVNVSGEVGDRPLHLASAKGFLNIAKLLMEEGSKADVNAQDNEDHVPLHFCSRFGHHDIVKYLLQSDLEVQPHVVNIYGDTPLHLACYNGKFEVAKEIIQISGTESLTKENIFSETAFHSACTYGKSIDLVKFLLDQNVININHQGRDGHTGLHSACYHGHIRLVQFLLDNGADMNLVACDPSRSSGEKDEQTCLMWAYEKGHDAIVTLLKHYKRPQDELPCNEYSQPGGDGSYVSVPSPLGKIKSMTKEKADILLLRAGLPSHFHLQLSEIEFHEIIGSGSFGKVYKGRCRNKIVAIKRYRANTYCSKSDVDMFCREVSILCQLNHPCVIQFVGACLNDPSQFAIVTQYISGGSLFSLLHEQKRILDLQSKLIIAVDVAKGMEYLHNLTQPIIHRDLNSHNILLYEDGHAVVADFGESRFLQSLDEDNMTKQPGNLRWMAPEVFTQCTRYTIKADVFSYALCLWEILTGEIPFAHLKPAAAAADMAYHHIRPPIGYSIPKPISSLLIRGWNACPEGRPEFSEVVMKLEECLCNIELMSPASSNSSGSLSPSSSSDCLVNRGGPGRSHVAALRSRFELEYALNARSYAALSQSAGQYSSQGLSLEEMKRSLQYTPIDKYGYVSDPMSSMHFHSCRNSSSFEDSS

PRKD2 (human) = PRKD2 (human) (UniProt Q9BZL6)
EPHB3 (human) = EPHB3 (human) (UniProt P54753)
NEK4 (human) = NEK4 (human) (UniProt P51957)
Chain of NEK4 (human) (P51957 whole entry, looked up): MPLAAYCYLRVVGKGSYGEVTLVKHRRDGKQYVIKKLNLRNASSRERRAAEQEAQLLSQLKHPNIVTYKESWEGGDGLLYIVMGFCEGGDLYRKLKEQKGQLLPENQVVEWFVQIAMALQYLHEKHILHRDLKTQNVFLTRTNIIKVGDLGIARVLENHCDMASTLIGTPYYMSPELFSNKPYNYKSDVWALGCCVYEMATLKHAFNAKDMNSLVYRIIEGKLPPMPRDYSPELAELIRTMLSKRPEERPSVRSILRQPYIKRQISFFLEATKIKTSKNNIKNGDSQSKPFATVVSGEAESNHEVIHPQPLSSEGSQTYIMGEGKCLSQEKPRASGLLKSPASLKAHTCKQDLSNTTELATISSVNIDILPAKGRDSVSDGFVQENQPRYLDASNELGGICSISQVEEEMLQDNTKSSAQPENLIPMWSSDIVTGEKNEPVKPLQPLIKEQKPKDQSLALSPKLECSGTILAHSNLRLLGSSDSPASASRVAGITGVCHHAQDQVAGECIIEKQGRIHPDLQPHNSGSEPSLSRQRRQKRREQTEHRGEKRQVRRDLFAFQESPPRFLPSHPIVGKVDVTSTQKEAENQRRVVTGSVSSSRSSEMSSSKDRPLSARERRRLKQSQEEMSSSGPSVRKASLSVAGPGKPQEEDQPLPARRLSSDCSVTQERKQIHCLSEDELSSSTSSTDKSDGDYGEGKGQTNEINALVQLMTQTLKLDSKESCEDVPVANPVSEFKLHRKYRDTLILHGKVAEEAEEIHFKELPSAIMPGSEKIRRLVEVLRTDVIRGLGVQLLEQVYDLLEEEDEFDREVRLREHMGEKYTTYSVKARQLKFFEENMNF

WEE1 (human) = WEE1 (human) (UniProt P30291)
AURKC (human) = AURKC (human) (UniProt Q9UQB9)
PKMYT1 (human) = PKMYT1 (human) (UniProt Q99640)
INSRR (human) = INSRR (human) (UniProt P14616)
PIK3C2B (human) = PIK3C2B (human) (UniProt O00750)
MAP2K1 (human) = MAP2K1 (human) (UniProt Q02750)

Chain of CDKL5 (human) (O76039 whole entry, looked up): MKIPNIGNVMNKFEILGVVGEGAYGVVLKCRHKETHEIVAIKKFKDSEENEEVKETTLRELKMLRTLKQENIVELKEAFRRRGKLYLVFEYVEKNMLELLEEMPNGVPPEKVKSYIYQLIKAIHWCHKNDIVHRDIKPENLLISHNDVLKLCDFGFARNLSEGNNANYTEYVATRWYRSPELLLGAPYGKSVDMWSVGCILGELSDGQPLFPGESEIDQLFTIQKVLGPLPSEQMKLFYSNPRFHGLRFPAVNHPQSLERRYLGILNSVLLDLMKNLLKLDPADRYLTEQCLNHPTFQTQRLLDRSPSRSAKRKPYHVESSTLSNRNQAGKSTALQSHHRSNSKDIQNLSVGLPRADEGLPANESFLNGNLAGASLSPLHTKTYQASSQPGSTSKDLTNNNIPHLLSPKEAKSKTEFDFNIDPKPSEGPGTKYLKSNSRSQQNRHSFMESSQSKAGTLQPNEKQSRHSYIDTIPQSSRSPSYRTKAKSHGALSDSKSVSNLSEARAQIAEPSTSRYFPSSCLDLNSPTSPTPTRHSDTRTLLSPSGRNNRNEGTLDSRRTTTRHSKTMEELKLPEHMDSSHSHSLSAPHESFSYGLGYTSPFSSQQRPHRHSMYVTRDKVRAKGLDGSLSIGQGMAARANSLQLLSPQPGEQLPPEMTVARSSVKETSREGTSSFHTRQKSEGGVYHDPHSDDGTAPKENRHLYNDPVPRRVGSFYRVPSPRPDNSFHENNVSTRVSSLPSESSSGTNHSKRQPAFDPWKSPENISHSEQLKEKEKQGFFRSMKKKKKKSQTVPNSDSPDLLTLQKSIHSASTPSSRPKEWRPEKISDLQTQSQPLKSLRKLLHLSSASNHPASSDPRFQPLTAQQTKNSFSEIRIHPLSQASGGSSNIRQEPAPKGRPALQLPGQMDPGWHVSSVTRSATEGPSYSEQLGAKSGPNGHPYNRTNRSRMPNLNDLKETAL

`N#Cc1ccc2ncnc(NCCc3ccc4ccccc4c3)c2c1` gave a kinase still bound, per cent of control (PRKD1 (human)) of 100%, a kinase still bound, per cent of control (CDKL5 (human)) of 100% and a kinase still bound, per cent of control (ICK (human)) of 100%. For the same molecule, the kinase still bound, per cent of control (STK17B (human)) was 100%, the kinase still bound, per cent of control (CDC42BPG (human)) was 92% and the kinase still bound, per cent of control (SNRK (human)) was 36%. For the same molecule, the kinase still bound, per cent of control [1] was 100%, the kinase still bound, per cent of control (PTK6 (human)) was 96% and the kinase still bound, per cent of control (TESK1 (human)) was 100%. The kinase still bound, per cent of control [2] was 89%, the kinase still bound, per cent of control (LIMK1 (human)) was 100% and the kinase still bound, per cent of control (FGR (human)) was 100%. For the same molecule, the kinase still bound, per cent of control (MAP4K4 (human)) was 97%, the kinase still bound, per cent of control (ZAP70 (human)) was 94% and the kinase still bound, per cent of control (RPS6KA2 KD2 (human)) was 85%. For the same molecule, the kinase still bound, per cent of control (CDK4 CCND3 (human)) was 100%, the kinase still bound, per cent of control (TSSK1B (human)) was 100% and the kinase still bound, per cent of control (NIM1 (human)) was 82%. It also gave a kinase still bound, per cent of control (CHUK (human)) of 74%, a kinase still bound, per cent of control (MAP2K3 (human)) of 86% and a kinase still bound, per cent of control (CLK1 (human)) of 56%. It also gave a kinase still bound, per cent of control (PIM2 (human)) of 89%, a kinase still bound, per cent of control (PIK3CB (human)) of 39% and a kinase still bound, per cent of control (AAK1 (human)) of 86%. It also gave a kinase still bound, per cent of control (PIK3CD (human)) of 100%, a kinase still bound, per cent of control (MELK (human)) of 84% and a kinase still bound, per cent of control (MAPK11 (human)) of 100%. For the same molecule, the kinase still bound, per cent of control (CDK16 (human)) was 100%, the kinase still bound, per cent of control (GRK1 (human)) was 100% and the kinase still bound, per cent of control (SRC (human)) was 94%. For the same molecule, the kinase still bound, per cent of control [3] was 85%, the kinase still bound, per cent of control (STK32A (human)) was 100% and the kinase still bound, per cent of control (DDR2 (human)) was 100%. It also gave a kinase still bound, per cent of control (TNNI3K (human)) of 100%, a kinase still bound, per cent of control (PRKD2 (human)) of 73% and a kinase still bound, per cent of control (EPHB3 (human)) of 100%. For the same molecule, the kinase still bound, per cent of control (NEK4 (human)) was 100%, the kinase still bound, per cent of control (WEE1 (human)) was 88% and the kinase still bound, per cent of control (AURKC (human)) was 84%. For the same molecule, the kinase still bound, per cent of control (PKMYT1 (human)) was 100%, the kinase still bound, per cent of control (INSRR (human)) was 97% and the kinase still bound, per cent of control (PIK3C2B (human)) was 85%. The kinase still bound, per cent of control (MAP2K1 (human)) was 96%.
